# Experimental data from patent publication US6281250A, “Retinyl ethers, derivatives and analogues and inhibition of breast carcinogenesis” (Southern Research Institute, priority 1999, dated 2001).
# Where two headings read alike, the source gives them in different places.
# Assays:
# [1] = tested on: MNU-induced mammary cancer; assay: Short-term (90-day) assay against MNU-induced mammary cancer in rats (Expts. 2 and 3); assay type: in vivo, rat (female Sprague-Dawley); conditions: 90 days
# Protocol: Retinoid diet mixtures were stored at 4° C. […] The animals were palpated for mammary tumors 2×/week. […] Also, five rats/group had complete necropsies performed.
# The 2,5-dimethoxybenzyl (3b) and 4-methoxybenzyl (3e) ethers were tested in the same way in a 90-day study. […] The 2,5-dimethybenzyl (3c) and the 2,3-dimethoxybenzyl (3h) ethers, together with RTMBE for comparison, were likewise assayed according to the same methodology. Prior to the beginning of this study, specimens of the retinoid-diet mixtures were placed under the conditions that were employed during the storage and feeding of RTMBE, 3c, and 3h. The specimens were extracted with butanol, and the extracts were analyzed by HPLC. […] Testing of 3c and 3h was discontinued, but the RTMBE study was continued until the duration of the study was 180 days (Table 6). The results were similar to those of Experiment 1 (Table 3). The averages of the number of tumors per rat were reduced by 32-35%; in addition, the averages of the tumor weights per rat was 56-70% lower than the average tumor burden of the control group.
# and was continued until the studies of 3b, 3c, 3e, and 3h were terminated
# 90 days after administration of MNU. The RTMBE experiment was continued
# until 180 days after MNU administration (Table VI).
# kilogram of Teklad diet.
# in vivo = assay: in vivo
# Protocol: Toxicological evaluations involving measurement of body weights and observations of clinical signs characteristic of retinoid toxicity were accomplished as previously described (Lin et al., 1996).
# RTMBE and two of its analogues, together with RME and RPE, were selected for estimation of their toxicities to mice when administered during 28-29 days by gavage in corn oil (Table 8). Mice were evaluated for changes in body weight and for signs of clinical retinoid toxicity (hypervitaminosis A) including alopecia, scaly skin, and limping. In the first experiment, these retinyl ethers were given at equimicromolar doses at three dose levels. The retinyl benzyl ethers (RTMBE, 3c, and 3e) were then tested at higher doses in a second experiment.
# [2] = Tissue concentrations resulting from gavage of rats with RTMBE; assay type: in vivo, rat (female Sprague-Dawley); conditions: for concentration at 168 h / concentration at 336 h: rat, po, 14 mg/day by gavage; for concentration at 168 h: 7 days; for concentration at 336 h: 14 days
# Protocol: To plasma samples (50-200 μl), ten volumes of acetonitrile were added, and the preparations were centrifuged. The supernatants were evaporated to dryness under nitrogen and reconstituted in the mobile phase (see below). Tissues were homogenized in four volumes of water at 0° C., and each homogenate was extracted with acetonitrile (50 mL/g tissue). From this point, handling of plasma and tissue samples was identical. Portions (25-50 μl) of the reconstituted samples were analyzed by reverse-phase HPLC. The chromatographic system was composed of a Beckman solvent delivery module 110B, analogue interface module 406, programable detector module 166, and autosampler 507. The column was a Hypersil ODS, 5-μ, 250×4.6 mm. Elution was accomplished with a solvent of methanol:0.2%acetic acid (93.5:6.5, v/v) with the final solution containing 0.02% triethylamine. The flow rate was 1 mL/min, with detection at 340 nm.
# The concentrations of RTMBE in the serum, mammary gland, and liver of rats, as well as the levels of RP in the liver, were determined after administration of RTMBE by gavage during 14 days (Table 9). […] In order to investigate further the accumulation of retinyl benzyl ethers in mammary tissue, RTMBE, the 2,5-dimethoxybenzyl ether (3b), and the 4-methoxybenzyl (3e) ether were administered intravenously (via a tail vein) at 5 mg/kg to female Sprague-Dawley rats (3 with each retinoid). Acetonitrile extracts of plasma and mammary tissue were analyzed by HPLC. The ratios of mammary tissue-to-plasma concentrations of RTMBE, 3b, and 3e were 183±77, 38±20, and 41±14, respectively, after 24 hr.
# ^a The dose of 14 mg/day by gavage is equivalent to a feeding dose of 2
# [3] = Mammary tissue-to-plasma concentration after intravenous dosing; assay type: in vivo, rat (female Sprague-Dawley); conditions: rat, 5 mg/kg i.v., after 24 hr, read-out: ratio of mammary tissue-to-plasma concentrations
# [4] = tested on: MNU-induced mammary cancer; assay: 180-day study of RTMBE for suppression of MNU-induced mammary carcinogenesis (Expt. 3); assay type: in vivo, rat (female Sprague-Dawley); conditions: second, confirmatory experiment; 2 mmol/kg of diet, 180 days
# [5] = mammary gland, read-out: RTMBE, Mammary Gland
smiles,measurement,setting,value
"COc1cc(COC/C=C(C)/C=C/C=C(C)/C=C/C2=C(C)CCCC2(C)C)cc(OC)c1OC [Compound 2, Retinyl 3,4,5-Trimethoxybenzyl Ether]",reduction of the number of tumors per rat,[1]; at 1 mmol/kg,64%
same,"Tumors, % of Control Gp.","[1]; Expt. 3, 0.5 mmol/kg diet",78%
same,"Tumors, Avg. No. per Rat","[1]; Expt. 3, 0.5 mmol/kg diet",1.5
same,"Tumors, % of Control Gp.","[1]; Expt. 3, 1 mmol/kg diet",36%
same,"Tumors, Avg. No. per Rat","[1]; Expt. 3, 1 mmol/kg diet",0.7
same,"Tumors, % of Control Gp.","[1]; Expt. 3, 2 mmol/kg diet",36%
same,"Tumors, Avg. No. per Rat","[1]; Expt. 3, 2 mmol/kg diet",0.7
same,NOAEL,"in vivo; mouse, in vivo, po",249 mg/kg/day
same,Toxic Dose,"in vivo; oral gavage in corn oil, 28-29 days",> 249 mg/kg day
same,"clinical toxicity (alopecia, scaly skin, limping)","in vivo; oral gavage, up to highest dose (RTMBE and RMoBE-4: Expt. 2)",No evidence of clinical toxicity
same,liver levels of RP compared with vehicle group,"[2]; after 14 days, gavage",only slightly higher than the levels of the vehicle group
same,change of serum concentration of RTMBE,"[2]; between 7 and 14 days, gavage",did not change significantly
same,increase of concentration in mammary gland,"[2]; between 7 and 14 days, gavage",more than two-fold
same,increase of liver level of RTMBE,"[2]; between 7 and 14 days, gavage",22%
same,concentration at 168 h,"[2]; liver, read-out: RTMBE, Liver",78900 ± 7500 ng/g
same,concentration at 336 h,"[2]; liver, read-out: RTMBE, Liver",96100 ± 11100 ng/g
same,concentration at 168 h,[2]; [5],83300 ± 7300 ng/g
same,concentration at 336 h,[2]; [5],178000 ± 11100 ng/g
same,concentration at 168 h,"[2]; serum, read-out: RTMBE, Serum",16300 ± 2500 ng/mL
same,concentration at 336 h,"[2]; serum, read-out: RTMBE, Serum",17300 ± 2200 ng/mL
same,Kp at 24 h,[3],183 ± 77
same,"reduction of adenocarcinoma formation, compared with retinyl acetate",[4],somewhat more effectively than retinyl acetate
